# Laboratory results reported in US11001872B2, “Designing customized protein-specific buffer system” (priority 2015, dated 2021).
# Tests used:
# protein sample [1] = assay: Protein stability screen: protein melting point temperature in MES/BTP buffer mixture; type: physicochemical; conditions: Hoefmeister Series screen; higher Tm
# Text: In one embodiment, the present invention contemplates a method comprising a physiologic buffer mixture having a temperature-stable pKa to identify test compounds that increase stability of a sample protein by performing a protein melting point temperature screen. […] Although it is not necessary to understand the mechanism of an invention it is believed that a protein stability screen acts to define the bulk properties of a solution system (i.e. impact of pH, ionic strength, buffer etc.) and not just one specific component like most of the other screening conditions. The buffer system also acts as an internal control that simultaneously compares new and old conditions under identical conditions. Although commonly used previously, a urea stability test provides validation and verification of all testing parameters by comparative analysis with historical literature. DMSO screening allows for the nomination of conditions where protein compounds are usually insoluble (e.g., for example, drug binding studies) to identify the proper use of DMSO to solubilize these compounds without effecting the performance of the intended assay.
# See, FIG. 1. […] See, FIG. 3. […] See, FIG. 4. […] See, FIG. 5. […] See, FIG. 6.
# A metal ion screen was performed that compared the relative effects of five (5) different metal chloride ions, each at two different concentrations. See, FIG. 7. […] See, FIG. 8.
# In one embodiment, the kit instructions comprise the following steps: • i) pre-chill the RT-PCR plate at 4° C. for 15-30 minutes prior to the addition of reagents and/or protein sample to each of the wells. • ii) The dye vial and kit plates should be stored at −20° C. and away from light until the time of use. • iii) Add 5 μl of dye to 500 μl of protein sample. The dye to protein ratio can be modified to any particular protein. For example, smaller proteins or proteins with a small hydrophobic core may require an increased dye concentration. • iv) Transfer 5 μl of each solution from the well plate to a corresponding well of the RT-PCR plate. • v) Add 5 μl of the protein/dye mixture to each well of the RT-PCR plate (>0.5 mg/ml). • vi) Mix the solutions by pipetting up and down (˜5 times). • a) gently placing all solutions at the bottom of the avoids subsequent plate centrifugation. • vii) Seal the RT-PCR plate. • viii) Immediately load the TR-PCR plate into the instrument and begin the programmed heating schedule (approximate timeframe=62 minutes), for example: • a) Heat to 20 C • b) Ramp to 90 C in 0.5 C increments. • c) Ramp to 4 C with a two minute schedule. • ix) Upload stored data file to a designated website (e.g., for example, caymanchem.com/deltatm) and follow the instructions.
# protein sample [2] = assay: Protein quality control screen: melting point temperature vs pH and NaCl concentration; type: physicochemical
# Text: In one embodiment, the present invention contemplates a method comprising a protein quality control screen. Although it is not necessary to understand the mechanism of an invention, it is believed that a quality control screen may be used to analyze: i) comparison of protein state prior to storage and post storage; ii) protein synthesis/purification lot-to-lot comparison; and iii) protein synthesis/purification batch testing. In one embodiment, the protein quality control screen measures protein melting point temperature while varying both pH concentration and ionic strength (e.g., for example, using a sodium chloride dose response curve). See, Table 1.
# In one embodiment, a three dimensional map of the protein melting point temperatures is created by plotting the melting point determinations relative to pH and ionic strength. See. FIG. 15.
smiles,measurement,setting,value
[Cl-].[Na+] [sodium chloride],effect on protein stability (Tm),protein sample [1],improved the stability of the protein
same,protein melting point temperature,"protein sample [2]; pH 5, NaCl Concentration 0.125",73 °C
same,protein melting point temperature,"protein sample [2]; pH 5, NaCl Concentration 0.25",73.5 °C
same,protein melting point temperature,"protein sample [2]; pH 5, NaCl Concentration 0.5",74.5 °C
same,protein melting point temperature,"protein sample [2]; pH 5, NaCl Concentration 0.75",76 °C
same,protein melting point temperature,"protein sample [2]; pH 5, NaCl Concentration 1",76.5 °C
same,protein melting point temperature,"protein sample [2]; pH 5, NaCl Concentration 1.25",77 °C
same,protein melting point temperature,"protein sample [2]; pH 5, NaCl Concentration 1.5",77 °C
same,protein melting point temperature,"protein sample [2]; pH 5, NaCl Concentration 1.75",76.5 °C
same,protein melting point temperature,"protein sample [2]; pH 5, NaCl Concentration 2",77 °C
same,protein melting point temperature,"protein sample [2]; pH 5.5, NaCl Concentration 0.125",75 °C
same,protein melting point temperature,"protein sample [2]; pH 5.5, NaCl Concentration 0.25",75 °C
same,protein melting point temperature,"protein sample [2]; pH 5.5, NaCl Concentration 0.5",75 °C
same,protein melting point temperature,"protein sample [2]; pH 5.5, NaCl Concentration 0.75",76 °C
same,protein melting point temperature,"protein sample [2]; pH 5.5, NaCl Concentration 1",76.5 °C
same,protein melting point temperature,"protein sample [2]; pH 5.5, NaCl Concentration 1.25",77 °C
same,protein melting point temperature,"protein sample [2]; pH 5.5, NaCl Concentration 1.5",77 °C
same,protein melting point temperature,"protein sample [2]; pH 5.5, NaCl Concentration 1.75",77.5 °C
same,protein melting point temperature,"protein sample [2]; pH 5.5, NaCl Concentration 2",77.5 °C
same,protein melting point temperature,"protein sample [2]; pH 6, NaCl Concentration 0.125",75 °C
same,protein melting point temperature,"protein sample [2]; pH 6, NaCl Concentration 0.25",76 °C
same,protein melting point temperature,"protein sample [2]; pH 6, NaCl Concentration 0.5",76 °C
same,protein melting point temperature,"protein sample [2]; pH 6, NaCl Concentration 0.75",76.5 °C
same,protein melting point temperature,"protein sample [2]; pH 6, NaCl Concentration 1",77 °C
same,protein melting point temperature,"protein sample [2]; pH 6, NaCl Concentration 1.25",77 °C
same,protein melting point temperature,"protein sample [2]; pH 6, NaCl Concentration 1.5",77 °C
same,protein melting point temperature,"protein sample [2]; pH 6, NaCl Concentration 1.75",78 °C
same,protein melting point temperature,"protein sample [2]; pH 6, NaCl Concentration 2",77.5 °C
same,protein melting point temperature,"protein sample [2]; pH 6.5, NaCl Concentration 0.125",76 °C
same,protein melting point temperature,"protein sample [2]; pH 6.5, NaCl Concentration 0.25",76.5 °C
same,protein melting point temperature,"protein sample [2]; pH 6.5, NaCl Concentration 0.5",76.5 °C
same,protein melting point temperature,"protein sample [2]; pH 6.5, NaCl Concentration 0.75",77 °C
same,protein melting point temperature,"protein sample [2]; pH 6.5, NaCl Concentration 1",77.5 °C
same,protein melting point temperature,"protein sample [2]; pH 6.5, NaCl Concentration 1.25",77.5 °C
same,protein melting point temperature,"protein sample [2]; pH 6.5, NaCl Concentration 1.5",77.5 °C
same,protein melting point temperature,"protein sample [2]; pH 6.5, NaCl Concentration 1.75",78 °C
same,protein melting point temperature,"protein sample [2]; pH 6.5, NaCl Concentration 2",78 °C
same,protein melting point temperature,"protein sample [2]; pH 7, NaCl Concentration 0.125",76 °C
same,protein melting point temperature,"protein sample [2]; pH 7, NaCl Concentration 0.25",76.5 °C
same,protein melting point temperature,"protein sample [2]; pH 7, NaCl Concentration 0.5",77 °C
same,protein melting point temperature,"protein sample [2]; pH 7, NaCl Concentration 0.75",77.5 °C
same,protein melting point temperature,"protein sample [2]; pH 7, NaCl Concentration 1",77.5 °C
same,protein melting point temperature,"protein sample [2]; pH 7, NaCl Concentration 1.25",77.5 °C
same,protein melting point temperature,"protein sample [2]; pH 7, NaCl Concentration 1.5",77.5 °C
same,protein melting point temperature,"protein sample [2]; pH 7, NaCl Concentration 1.75",77 °C
same,protein melting point temperature,"protein sample [2]; pH 7, NaCl Concentration 2",77 °C
same,protein melting point temperature,"protein sample [2]; pH 7.5, NaCl Concentration 0.125",76.5 °C
same,protein melting point temperature,"protein sample [2]; pH 7.5, NaCl Concentration 0.25",77.5 °C
same,protein melting point temperature,"protein sample [2]; pH 7.5, NaCl Concentration 0.5",77.5 °C
same,protein melting point temperature,"protein sample [2]; pH 7.5, NaCl Concentration 0.75",78 °C
same,protein melting point temperature,"protein sample [2]; pH 7.5, NaCl Concentration 1",77.5 °C
same,protein melting point temperature,"protein sample [2]; pH 7.5, NaCl Concentration 1.25",76.5 °C
same,protein melting point temperature,"protein sample [2]; pH 7.5, NaCl Concentration 1.5",76 °C
same,protein melting point temperature,"protein sample [2]; pH 7.5, NaCl Concentration 1.75",76 °C
same,protein melting point temperature,"protein sample [2]; pH 7.5, NaCl Concentration 2",75 °C
same,protein melting point temperature,"protein sample [2]; pH 8, NaCl Concentration 0.125",75.5 °C
same,protein melting point temperature,"protein sample [2]; pH 8, NaCl Concentration 0.25",77.5 °C
same,protein melting point temperature,"protein sample [2]; pH 8, NaCl Concentration 0.5",76.5 °C
same,protein melting point temperature,"protein sample [2]; pH 8, NaCl Concentration 0.75",77.5 °C
same,protein melting point temperature,"protein sample [2]; pH 8, NaCl Concentration 1",76.5 °C
same,protein melting point temperature,"protein sample [2]; pH 8, NaCl Concentration 1.25",76.5 °C
same,protein melting point temperature,"protein sample [2]; pH 8, NaCl Concentration 1.5",76 °C
same,protein melting point temperature,"protein sample [2]; pH 8, NaCl Concentration 1.75",75 °C
same,protein melting point temperature,"protein sample [2]; pH 8, NaCl Concentration 2",74.5 °C
same,protein melting point temperature,"protein sample [2]; pH 8.5, NaCl Concentration 0.125",75 °C
same,protein melting point temperature,"protein sample [2]; pH 8.5, NaCl Concentration 0.25",75.5 °C
same,protein melting point temperature,"protein sample [2]; pH 8.5, NaCl Concentration 0.5",76 °C
same,protein melting point temperature,"protein sample [2]; pH 8.5, NaCl Concentration 0.75",77 °C
same,protein melting point temperature,"protein sample [2]; pH 8.5, NaCl Concentration 1",76 °C
same,protein melting point temperature,"protein sample [2]; pH 8.5, NaCl Concentration 1.25",75 °C
same,protein melting point temperature,"protein sample [2]; pH 8.5, NaCl Concentration 1.5",75 °C
same,protein melting point temperature,"protein sample [2]; pH 8.5, NaCl Concentration 1.75",75 °C
same,protein melting point temperature,"protein sample [2]; pH 8.5, NaCl Concentration 2",74.5 °C
same,protein melting point temperature,"protein sample [2]; pH 9, NaCl Concentration 0.125",75 °C
same,protein melting point temperature,"protein sample [2]; pH 9, NaCl Concentration 0.25",75 °C
same,protein melting point temperature,"protein sample [2]; pH 9, NaCl Concentration 0.5",75.5 °C
same,protein melting point temperature,"protein sample [2]; pH 9, NaCl Concentration 0.75",75 °C
same,protein melting point temperature,"protein sample [2]; pH 9, NaCl Concentration 1",75 °C
same,protein melting point temperature,"protein sample [2]; pH 9, NaCl Concentration 1.25",75 °C
same,protein melting point temperature,"protein sample [2]; pH 9, NaCl Concentration 1.5",75 °C
same,protein melting point temperature,"protein sample [2]; pH 9, NaCl Concentration 1.75",74.5 °C
same,protein melting point temperature,"protein sample [2]; pH 9, NaCl Concentration 2",74 °C
